This is an account of results in patent US20130231458A1, “POLYPEPTIDE FOR PREVENTING AND TREATING CELL HYPERPLASIA” (priority 2011, published 2013).

One series has as its system lung cancer cells. As to the kind of experiment: Xenograft model of lung cancer in nude mice, tumor volume. Format: in vivo, nude mice (NU/NU). On the procedure: The polypeptide of the present invention is preventively injected into the rear parts of the necks of four nude mice (nude mice—NU/NU) for a week (5 times per week at a dose of 50 mg/Kg). Next, 1×10^6 lung cancer cells are injected into the hypodermic tissue of the right side of the abdomen of each nude mouse on Day 1. The abovementioned four nude mice function as the medicine test group. Next, the polypeptide is delivered to each nude mouse of the medicine test group at a dose of 50 mg/Kg 5 times per week from Day 1 to Day 43. Meanwhile, the weight and cancer size of each nude mouse of the medicine test group is recorded. […] Normal saline having a pH of 7.2-7.4 is subcutaneously injected into the four nude mice of the negative control group for a week (5 times per week). Next, 1×10^6 lung cancer cells are injected into the hypodermic tissue of the right side of the abdomen of each nude mouse of the negative control group on Day 1. Next, normal saline is delivered to each nude mouse of the negative control group 5 times per week from Day 1 to Day 43. Meanwhile, the weight and cancer size of each nude mouse of the negative control group is recorded. […] 1×10^6 lung cancer cells are injected into the hypodermic tissue of the right side of the abdomen of each nude mouse of the positive control group on Day 1. Next, a small-molecule anti-cancer drug Doxorubicin is intravenously injected into a region near the abdomen of each nude mouse of the positive control group once per week at a dose of 5 mg/Kg from Day 1 to Day 43 (refer to F Pastorino et. al., Clin. Cancer Res. 14(22): 7320-7329, 2008). Meanwhile, the weight and cancer size of each nude mouse of the positive control group is recorded. Different from the abovementioned two groups, medicine is not applied to the positive control group before Day 1. […] The mice of the three groups are dissected for examining and recording the weight of the tumor tissue on Day 43.

The nature of series [1]: Weights, motility and side effects of nude mice in the xenograft experiment. Format: in vivo, nude mice (NU/NU). On the procedure: The polypeptide of the present invention is preventively injected into the rear parts of the necks of four nude mice (nude mice—NU/NU) for a week (5 times per week at a dose of 50 mg/Kg). Next, 1×10^6 lung cancer cells are injected into the hypodermic tissue of the right side of the abdomen of each nude mouse on Day 1. The abovementioned four nude mice function as the medicine test group. Next, the polypeptide is delivered to each nude mouse of the medicine test group at a dose of 50 mg/Kg 5 times per week from Day 1 to Day 43. Meanwhile, the weight and cancer size of each nude mouse of the medicine test group is recorded. The negative control group also has four nude mice. Normal saline having a pH of 7.2-7.4 is subcutaneously injected into the four nude mice of the negative control group for a week (5 times per week). Next, 1×10^6 lung cancer cells are injected into the hypodermic tissue of the right side of the abdomen of each nude mouse of the negative control group on Day 1. Next, normal saline is delivered to each nude mouse of the negative control group 5 times per week from Day 1 to Day 43. Meanwhile, the weight and cancer size of each nude mouse of the negative control group is recorded. The positive control group also has four nude mice. 1×10^6 lung cancer cells are injected into the hypodermic tissue of the right side of the abdomen of each nude mouse of the positive control group on Day 1. Next, a small-molecule anti-cancer drug Doxorubicin is intravenously injected into a region near the abdomen of each nude mouse of the positive control group once per week at a dose of 5 mg/Kg from Day 1 to Day 43 (refer to F Pastorino et. al., Clin. Cancer Res. 14(22): 7320-7329, 2008). Meanwhile, the weight and cancer size of each nude mouse of the positive control group is recorded. Different from the abovementioned two groups, medicine is not applied to the positive control group before Day 1. The medicine test group, negative control group and positive group are observed until Day 43. The mice of the three groups are dissected for examining and recording the weight of the tumor tissue on Day 43.

A further series has as its system erythrocytes. To be noted: very low concentration (lower than 5 μM); cited from earlier work.

As for `COc1cccc2c1C(=O)c1c(O)c3c(c(O)c1C2=O)C[C@@](O)(C(=O)CO)C[C@@H]3O[C@H]1C[C@H](N)[C@H](O)[C@H](C)O1` [Dox, Doxorubicin], the “Tumor Volumes of Nude Mice” value was 57.8 mm^3 with lung cancer cells (D22, polypeptide 50 mg/Kg s.c. 5 times per week (plus one week before D1), Dox 5 mg/Kg i.v. once per week); 373.8 mm^3 with lung cancer cells (D29, same dosing); 553.5 mm^3 in the series with lung cancer cells (D33, same dosing); 632.6 mm^3 in the series on lung cancer cells (D36, same dosing); 884.5 mm^3 in the series with lung cancer cells (D40, same dosing); 1308.9 mm^3 in the series with lung cancer cells (D43, same dosing). The “ratio of the average tumor volumes of treated group and negative control group (saline)” value came to 52.0% in the series with lung cancer cells (at best, Day 40) and 83.05% with lung cancer cells (end of the experiment (Day 43)). The “Weights of Nude Mice” value in series [1] (D1, polypeptide 50 mg/Kg s.c. 5 times per week (plus one week before D1), Dox 5 mg/Kg i.v. once per week) came out at 25.6 gram; in series [1] (D5, same dosing) it was 26.5 gram; in series [1] (D8, same dosing) it was 27.8 gram; in series [1] (D12, same dosing), 28.2 gram; in series [1] (D15, same dosing) it was 28.8 gram; in series [1] (D19, same dosing) it was 30.4 gram. Also, the “Weights of Nude Mice” value came to 30.0 gram in series [1] (D22, same dosing); 30.4 gram in series [1] (D26, same dosing); 30.0 gram in series [1] (D29, same dosing); 31.5 gram in series [1] (D33, same dosing); 32.1 gram in series [1] (D36, same dosing); 32.5 gram in series [1] (D40, same dosing). Further, the “Weights of Nude Mice” value in series [1] (D43, same dosing) is 32.8 gram. For the same molecule, the “weights and motilities during the experiment” value in series [1] (Day 1 to Day 43) was “do not vary significantly”.

With `CC[C@H](C)[C@H](NC(=O)CN)C(=O)NCC(=O)N[C@@H](C)C(=O)N[C@H](C(=O)N[C@@H](CC(C)C)C(=O)N[C@@H](CCCCN)C(=O)N[C@H](C(=O)N[C@@H](CC(C)C)C(=O)N[C@H](C(=O)N[C@H](C(=O)NCC(=O)N[C@@H](CC(C)C)C(=O)N1CCC[C@H]1C(=O)N[C@@H](C)C(=O)N[C@@H](CC(C)C)C(=O)N[C@H](C(=O)N[C@@H](CO)C(=O)N[C@@H](Cc1c[nH]c2ccccc12)C(=O)N[C@H](C(=O)N[C@@H](CCCCN)C(=O)N[C@@H](CCCNC(=N)N)C(=O)N[C@@H](CCCCN)C(=O)N[C@@H](CCCNC(=N)N)C(=O)N[C@@H](CCC(N)=O)C(=O)N[C@@H](CCC(N)=O)C(N)=O)[C@@H](C)CC)[C@@H](C)CC)[C@@H](C)O)[C@@H](C)O)C(C)C)C(C)C` [melittin], the erythrocytes damaged entry in the series with erythrocytes is “about 90%”.
